In ChEMBL document CHEMBL4118117, “Synthesis, biological evaluation, and molecular docking investigation of benzhydrol- and indole-based dual PPAR-γ/FFAR1 agonists” (Bioorg Med Chem Lett, 2018):
The source made the active and inactive calls. The calls are words filed in the database; no cut-off is given here.

Legend:
Mus musculus [1] = assay: Antihyperglycemic activity in established high fat diet-induced obese mouse assessed as reduction in body weight at 10 mg/kg, iv administered once daily for 14 days; type: functional, organism-based
Mus musculus [2] = assay: Antihyperglycemic activity in established high fat diet-induced obese mouse assessed as reduction in blood glucose level at 10 mg/kg, iv administered once daily for 14 days measured at 1 hr post dose on day 7 and 14 during compound dosing in presence of rosiglitazone; type: functional, organism-based
[3] = biological target: T1, Peroxisome proliferator-activated receptor gamma (Homo sapiens) (UniProt P37231); assay: Transactivation of recombinant human N-terminal GAL4-DBD fused PPARgamma LBD expressed in reporter cells at 30 uM measured after 24 hrs by luciferase reporter gene assay relative to control; type: cell-based
T1 sequence (whole entry): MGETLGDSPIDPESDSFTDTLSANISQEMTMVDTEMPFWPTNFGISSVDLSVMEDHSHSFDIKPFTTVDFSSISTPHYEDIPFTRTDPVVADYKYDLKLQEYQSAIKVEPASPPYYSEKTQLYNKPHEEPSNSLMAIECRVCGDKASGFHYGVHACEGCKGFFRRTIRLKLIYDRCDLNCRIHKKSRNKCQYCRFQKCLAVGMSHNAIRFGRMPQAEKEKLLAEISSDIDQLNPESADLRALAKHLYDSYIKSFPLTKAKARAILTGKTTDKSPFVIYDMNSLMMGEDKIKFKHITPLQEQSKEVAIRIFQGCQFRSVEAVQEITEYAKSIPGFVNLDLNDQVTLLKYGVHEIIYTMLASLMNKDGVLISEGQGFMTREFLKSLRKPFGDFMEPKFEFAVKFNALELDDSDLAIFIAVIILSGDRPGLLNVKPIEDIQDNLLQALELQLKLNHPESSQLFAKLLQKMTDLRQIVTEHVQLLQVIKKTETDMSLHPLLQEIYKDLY

[4] = biological target: Free fatty acid receptor 1 (Homo sapiens, UniProt O14842); assay: Transactivation of recombinant human FFAR1 expressed in CHOK1 cells co-expressing Galpha15 assessed as increase in calcium flux measured after 20 secs for 100 secs by FLIPR assay; type: functional, cell-based
[5] = biological target: T1, Peroxisome proliferator-activated receptor gamma (Homo sapiens); assay: Transactivation of recombinant human N-terminal GAL4-DBD fused PPARgamma LBD expressed in reporter cells at 30 uM measured after 24 hrs by luciferase reporter gene assay relative to rosiglitazone; type: cell-based
Mus musculus [6] = assay: Antihyperglycemic activity in established high fat diet-induced obese mouse assessed as reduction in blood glucose level at 10 mg/kg, iv administered once daily for 14 days measured at 1 hr post dose on day 7 and 14 during compound dosing; type: functional, organism-based
Mus musculus [7] = assay: Antihyperlipidemic activity in established high fat diet-induced obese mouse assessed as reduction in plasma triglyceride level at 10 mg/kg, iv administered once daily for 14 days measured at 1 hr post dose on day 7 and 14 during compound dosing by colorimetric method relative to rosiglitazone; type: functional
[8] = biological target: T2, Peroxisome proliferator-activated receptor gamma (Homo sapiens, UniProt P37231); assay: Transactivation of recombinant human N-terminal GAL4-DBD fused PPARgamma LBD expressed in reporter cells measured after 24 hrs by luciferase reporter gene assay; type: cell-based
T2 sequence (P37231 whole entry): T1 sequence (whole entry)

Mus musculus [9] = assay: Antihyperglycemic activity in established high fat diet-induced obese mouse assessed as reduction in blood glucose level at 10 mg/kg, iv administered once daily for 14 days measured at 1 hr post dose on day 7 and 14 during compound dosing relative to rosiglitazone; type: functional
Mus musculus [10] = assay: Antihyperglycemic activity in established high fat diet-induced obese mouse assessed as reduction in blood glucose level at 10 mg/kg, iv administered once daily for 14 days measured at 1 hr post dose on day 7 and 14 during compound dosing in presence of glimepride; type: functional, organism-based

Chain of Free fatty acid receptor 1 (O14842 whole entry, the tested form may be a part): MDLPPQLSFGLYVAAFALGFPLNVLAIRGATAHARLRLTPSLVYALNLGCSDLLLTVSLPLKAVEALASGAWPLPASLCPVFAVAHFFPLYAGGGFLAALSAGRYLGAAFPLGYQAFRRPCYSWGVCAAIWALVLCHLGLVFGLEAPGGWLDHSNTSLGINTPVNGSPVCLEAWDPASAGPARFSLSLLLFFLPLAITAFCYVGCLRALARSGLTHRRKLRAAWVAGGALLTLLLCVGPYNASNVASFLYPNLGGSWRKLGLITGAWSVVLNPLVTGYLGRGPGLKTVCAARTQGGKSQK

| fold change (FC) [3] | EC50 ([4]; read-out: EC50) [µM] | SMILES | Activity [5] | EC50 [4] | also measured |
| --- | --- | --- | --- | --- | --- |
|  |  | CCC1=C(C)CN(C(=O)NCCc2ccc(S(=O)(=O)NC(=O)N[C@H]3CC[C@H](C)CC3)cc2)C1=O |  |  | Activity (Mus musculus [1]): Active; Activity (Mus musculus [2]): Active |
| 4 | 21.3 | O=C1NC(=O)C(Cc2ccc(OCCOC(c3ccccc3)c3ccccc3)cc2)S1 (stereo not drawn) | 9.3% |  | Activity (Mus musculus [6]): Active |
| 29.7 | 4.31 | O=C1NC(=O)C(Cc2ccc(OCCn3cnc4ccccc43)cc2)S1 (stereo not drawn) | 69.8% |  | EC50 [8]: 2.32 µM |
| > 0.01 | 11.3 | O=C1NC(=O)C(Cc2ccc(OCCOC(c3ccccc3)c3ccc(C(F)(F)F)cc3)cc2)S1 (stereo not drawn) | inactive |  |  |
|  |  | O=C1NC(=O)C(Cc2ccc(OCCOC(c3ccccc3)c3ccc(Cl)cc3)cc2)S1 (stereo not drawn) | 10.7% | Not Active |  |
|  |  | Cc1ccccc1C(OCCOc1ccc(CC2SC(=O)NC2=O)cc1)c1ccccc1 (stereo not drawn) | 4.4% | Not Active |  |
| 43.1 |  | CN(CCOc1ccc(CC2SC(=O)NC2=O)cc1)c1ccccn1 (stereo not drawn) |  |  | Activity (Mus musculus [10]): Active; Activity (Mus musculus [1]): Active |
|  |  | O=C1NC(=O)C(Cc2ccc(OCCOc3cccc4ccccc34)cc2)S1 (stereo not drawn) | 13.3% | Not Active |  |
|  |  | O=C1NC(=O)C(Cc2ccc(OCCn3c(-c4ccccc4)cc4ccccc43)cc2)S1 (stereo not drawn) | 34.9% | Not Active |  |
| 56.1 | 2.19 | O=C1NC(=O)C(Cc2ccc(OCCn3ccc4ccccc43)cc2)S1 (stereo not drawn) | 130% |  | EC50 [8]: 3.94 µM; Activity (Mus musculus [6]): Active |
|  |  | O=C1NC(=O)C(Cc2ccc(OCCn3c(CO)nc4ccccc43)cc2)S1 (stereo not drawn) | 39.5% | Not Active |  |
|  | 0.24 | CCCCC/C=C/C/C=C/C/C=C/CCCCC(=O)O |  |  |  |

| SMILES | fold change (FC) [3] | EC50 ([4]; read-out: EC50) [µM] | Activity [5] | EC50 [4] | also measured |
| --- | --- | --- | --- | --- | --- |
| COc1ccc(C(OCCOc2ccc(CC3SC(=O)NC3=O)cc2)c2ccccc2)cc1 (stereo not drawn) |  | 17.8 | 12.1% |  | fold change (FC) (Mus musculus [7]): 5.5; Activity (Mus musculus [6]): Active |
| O=C1NC(=O)C(Cc2ccc(OCCn3ccc4ccc(Cl)cc43)cc2)S1 (stereo not drawn) |  | 5.06 | 83.7% |  | Activity (Mus musculus [1]): Active; fold change (FC) (Mus musculus [9]): 6; fold change (FC) (Mus musculus [7]): 3.5; EC50 [8]: 4.51 µM; Activity (Mus musculus [6]): Active |
